In the Deep4Chem optical property database:

Experiment: photoluminescence quantum yield (fraction); solvent given as SMILES

SMILES: CC1(C)c2ccccc2N(c2ccc3c(c2)c2cc(N4c5ccccc5C(C)(C)c5ccccc54)cc4c5ccccc5n3c42)c2ccccc21
- photoluminescence quantum yield (in O=P(c1ccccc1)(c1ccccc1)c1ccccc1Oc1ccccc1P(=O)(c1ccccc1)c1ccccc1): 0.96

SMILES: CCCC1(CCC)c2cc(-c3ccc(C(C)(C)C)cc3)ccc2-c2ccc(-c3ccc4c(c3)C(CCC)(CCC)c3cc(-c5ccc(C(C)(C)C)cc5)ccc3-4)cc21
- photoluminescence quantum yield (in C1CCCCC1): 0.92

SMILES: COc1ccc(/C=C/c2nc3c4ccccc4c4ccccc4c3o2)cc1
- photoluminescence quantum yield (in CC#N): 0.35

SMILES: CCCN1/C(=C/C=C(/C=C/c2sc3ccccc3[n+]2CCC)c2ccc([N+](=O)[O-])cc2)C(C)(C)c2ccccc21
- photoluminescence quantum yield (in CO): 0.03
- photoluminescence quantum yield (in CS(C)=O): 0.03
- photoluminescence quantum yield (in O): 0.06

SMILES: CC(C)(C)c1ccc2c(c1)c1cc(C(C)(C)C)ccc1n2-c1ccc(-c2ccc3c(c2)C2(c4cc(-c5ccc(-n6c7ccc(C(C)(C)C)cc7c7cc(C(C)(C)C)ccc76)cc5)ccc4-3)c3ccccc3S(=O)(=O)c3ccccc32)cc1
- photoluminescence quantum yield (in ClCCl): 0.88
- photoluminescence quantum yield (in c1cc(-n2c3ccccc3c3ccccc32)cc(-n2c3ccccc3c3ccccc32)c1): 0.83

SMILES: CCC1=C(C)C2=Cc3c4ccccc4c4n3[B-](c3ccc5ccc6cccc7ccc3c5c67)(Oc3ccccc3-4)[N+]2=C1C (stereo not given)
- photoluminescence quantum yield (in CC#N): 0.66
- photoluminescence quantum yield (in CCCCCC): 0.72
- photoluminescence quantum yield (in Cc1ccccc1): 0.66
- photoluminescence quantum yield (in ClCCl): 0.71

SMILES: COC(=O)c1[nH]c(-c2ccccc2)c2nnc3ccc(OC)cc3c12
- photoluminescence quantum yield (in ClCCl): 0.0207

SMILES: CN(C)c1ccc(C2=[N+]3C(=Nc4c5ccccc5c(-c5ccc(N(C)C)cc5)n4[B-]3(F)F)c3ccccc32)cc1
- photoluminescence quantum yield (in ClCCl): 0.01

SMILES: CN(C)CCCN1c2ccccc2Sc2ccc(C(F)(F)F)cc21
- photoluminescence quantum yield (in CC#N): 0.0011
- photoluminescence quantum yield (in CO): 0.001
- photoluminescence quantum yield (in O): 0.0014

SMILES: C[Si]1(C)c2ccc(-c3ccccc3)cc2C=Cc2cc(-c3ccccc3)ccc21
- photoluminescence quantum yield (in ClCCl): 0.38

SMILES: CCN(CC)c1ccc2cc(-c3csc(NC(C)=O)c3C#N)c(=O)oc2c1
- photoluminescence quantum yield (in C1CCOC1): 0.34
- photoluminescence quantum yield (in CS(C)=O): 0.07
- photoluminescence quantum yield (in ClCCl): 0.33

SMILES: CN(C)c1ccc(-c2ccc(C#N)s2)s1
- photoluminescence quantum yield (in CCO): 0.23

SMILES: Clc1ccc(-c2cccc3ncc(-c4ccccc4)n23)cc1
- photoluminescence quantum yield (in ClCCl): 0.42

SMILES: Oc1ccc2ccccc2c1
- photoluminescence quantum yield (in C1CCCCC1): 0.51

SMILES: COC(=O)C(NC(=O)OC(C)(C)C)c1ccc2oc(-c3ccc(N(C)C)cc3OC)nc2c1 (stereo not given)
- photoluminescence quantum yield (in CC1CCCCC1): 0.44
- photoluminescence quantum yield (in CC#N): 0.88
- photoluminescence quantum yield (in CO): 0.97

SMILES: CCCSc1ccc2n1[B-](F)(F)[N+]1=CC=CC1=C2c1ccccc1
- photoluminescence quantum yield (in CC#N): 0.03
- photoluminescence quantum yield (in CCCCCC): 0.03
- photoluminescence quantum yield (in CCOC(C)=O): 0.03
- photoluminescence quantum yield (in CO): 0.02
- photoluminescence quantum yield (in ClCCl): 0.04

SMILES: COc1ccc(C2=Cc3c4ccccc4cc[n+]3[B-](F)(F)O2)cc1
- photoluminescence quantum yield (in ClC(Cl)Cl): 0.313

SMILES: CCN(CC)c1ccc2cc(C#N)/c(=N\C(=O)c3ccc(F)cc3)oc2c1
- photoluminescence quantum yield (in CCO): 0.3
- photoluminescence quantum yield (in ClCCl): 0.83

SMILES: COc1cnc(-c2cc[n+](C3=C(F)C(F)(F)C(F)(F)[C-]3F)cc2)s1
- photoluminescence quantum yield (in CC#N): 0.64
- photoluminescence quantum yield (in CC(C)=O): 0.44
- photoluminescence quantum yield (in CCO): 0.21
- photoluminescence quantum yield (in CN(C)C=O): 0.04
- photoluminescence quantum yield (in CO): 0.08
- photoluminescence quantum yield (in CS(C)=O): 0.02
- photoluminescence quantum yield (in ClC(Cl)Cl): 0.73
- photoluminescence quantum yield (in ClCCl): 0.76

SMILES: C=CB1C=Cc2ccc3ccccc3c2N1
- photoluminescence quantum yield (in C1CCCCC1): 0.42

SMILES: c1cc2ccc3cc4cccc5ccc6cc(c1)c2c3c6c54
- photoluminescence quantum yield (in C1CCCCC1): 0.31
- photoluminescence quantum yield (in CC#N): 0.32
- photoluminescence quantum yield (in CO): 0.38
- photoluminescence quantum yield (in Cc1ccccc1): 0.47
- photoluminescence quantum yield (in ClCCl): 0.24

SMILES: O=C1c2cc3ccccc3cc2C2=Nc3ccc4ccccc4[n+]3[B-](F)(F)N12
- photoluminescence quantum yield (in ClCCl): 0.93

SMILES: Cc1cc2c3ccccc3oc2c2[nH]c3ccccc3c12
- photoluminescence quantum yield (in ClCCl): 0.444

SMILES: Cc1ccc(C2=[N+]3C(=Cc4c(C)cc(C)n4[B-]3(F)F)c3ccccc32)[nH]1
- photoluminescence quantum yield (in C1CCOC1): 0.82
- photoluminescence quantum yield (in CC#N): 0.84
- photoluminescence quantum yield (in CCCCCC): 0.91
- photoluminescence quantum yield (in CO): 0.83
- photoluminescence quantum yield (in Cc1ccccc1): 0.83
- photoluminescence quantum yield (in ClCCl): 0.89

SMILES: CCCCc1ccc(-n2c3c(c4c2c2c(n4-c4ccc(CCCC)cc4)-c4ccc(C(F)(F)F)cc4NB2c2ccccc2)B(c2ccccc2)Nc2cc(C(F)(F)F)ccc2-3)cc1
- photoluminescence quantum yield (in Cc1ccccc1): 0.78

SMILES: COc1cc2cc(/C=C/c3ccc(/C=C/c4ccc(/C=C(\C#N)C(=O)O)cc4)cc3)c(=O)oc2cc1OC
- photoluminescence quantum yield (in CC#N): 0.24

SMILES: CC(C)[Si]1(C(C)C)c2ccccc2-c2ccc(N(C)C)cc21
- photoluminescence quantum yield (in C1CCCCC1): 0.26
- photoluminescence quantum yield (in CC#N): 0.28
- photoluminescence quantum yield (in CCO): 0.11
- photoluminescence quantum yield (in CCOCC): 0.22
- photoluminescence quantum yield (in CS(C)=O): 0.12
- photoluminescence quantum yield (in ClCCl): 0.13
- photoluminescence quantum yield (in c1ccccc1): 0.22

SMILES: CCOC(=O)c1sc(SC)c2c(=O)n(C)nnc12
- photoluminescence quantum yield (in C1CCOC1): 0.016
- photoluminescence quantum yield (in CC#N): 0.029
- photoluminescence quantum yield (in CCO): 0.054
- photoluminescence quantum yield (in CN(C)C=O): 0.013
- photoluminescence quantum yield (in CO): 0.052
- photoluminescence quantum yield (in CS(C)=O): 0.0077

SMILES: Cc1ccc(C2=C3C=CC=[N+]3[B-](F)(F)n3cccc32)cc1
- photoluminescence quantum yield (in C1CCCCC1): 0.036
- photoluminescence quantum yield (in CC#N): 0.018
- photoluminescence quantum yield (in CCO): 0.025
- photoluminescence quantum yield (in CCOC(C)=O): 0.024
- photoluminescence quantum yield (in CO): 0.018
- photoluminescence quantum yield (in OCC(F)(F)F): 0.031

SMILES: CN(C)c1ccc(C#Cc2ccccc2)cc1
- photoluminescence quantum yield (in C1CCCCC1): 0.35
- photoluminescence quantum yield (in C1CCOC1): 0.244
- photoluminescence quantum yield (in C1COCCO1): 0.32
- photoluminescence quantum yield (in CC1CCCO1): 0.314
- photoluminescence quantum yield (in CC#N): 0.102
- photoluminescence quantum yield (in CC(C)=O): 0.103
- photoluminescence quantum yield (in CC(C)CC(C)(C)C): 0.28
- photoluminescence quantum yield (in CC(C)O): 0.011
- photoluminescence quantum yield (in CCCCCCCCCCCCCCCC): 0.372
- photoluminescence quantum yield (in CCCCCCCCCCCCCCCCCl): 0.409
- photoluminescence quantum yield (in CCOC(C)=O): 0.25
- photoluminescence quantum yield (in CCOCC): 0.11
- photoluminescence quantum yield (in CN(C)C=O): 0.3
- photoluminescence quantum yield (in CO): 0.01
- photoluminescence quantum yield (in CS(C)=O): 0.29
- photoluminescence quantum yield (in Cc1ccccc1): 0.39

SMILES: Brc1c(Br)c2ccc3c(Br)c(Br)c4ccc5ccc1c1c5c4c3c21
- photoluminescence quantum yield (in C1CCCCC1): 0.0012

SMILES: CCCCCCc1ccc(-n2c3c(c4c2c2c(n4-c4ccc(CCCCCC)cc4)-c4cccc(OC)c4NB2c2ccccc2)B(c2ccccc2)Nc2c(OC)cccc2-3)cc1
- photoluminescence quantum yield (in Cc1ccccc1): 0.62

SMILES: COCCC1=Cc2nc1ccc1[nH]c(cc1CCOC)c1nc(ccc3[nH]c2cc3CCO)C(CCOC)=C1
- photoluminescence quantum yield (in Cc1ccccc1): 0.32

SMILES: Cc1cc(C)c(C2=C3C=CC(c4ccccc4O)=[N+]3[B-]3(c4ccccc4)Oc4ccccc4-c4ccc2n43)c(C)c1 (stereo not given)
- photoluminescence quantum yield (in ClC(Cl)Cl): 0.65

SMILES: CC1=[N+]2C(=C(Oc3ccccc3)c3ccc(C)n3[B-]2(F)F)C=C1c1cc2n(c1)[B-](F)(F)[N+]1=CC=CC1=C2c1c(C)cc(C)cc1C
- photoluminescence quantum yield (in C1CCCCC1): 0.89
- photoluminescence quantum yield (in CCOC(C)=O): 0.16

SMILES: CCCCOc1ccc2cc(-c3ccc(C)cc3)c(=O)oc2c1
- photoluminescence quantum yield (in C1CCOC1): 0.611
- photoluminescence quantum yield (in CCCCCC): 0.564
- photoluminescence quantum yield (in CCO): 0.597
- photoluminescence quantum yield (in CS(C)=O): 0.585

SMILES: Ic1ccc(C2=C3C=CC4=[N+]3[B-]3(Oc5ccccc54)Oc4ccccc4-c4ccc2n43)cc1 (stereo not given)
- photoluminescence quantum yield (in ClC(Cl)Cl): 0.41

SMILES: c1ccc(-c2nc3sc4ccccc4c3s2)cc1
- photoluminescence quantum yield (in CS(C)=O): 0.89

SMILES: CCCCCCCCCCCCN1C(=O)c2c(c3ccc4cc(-c5ccc(OC)cc5)c(OC)cc4c3c3c2ccc2cc(-c4ccc(OC)cc4)c(OC)cc23)C1=O
- photoluminescence quantum yield (in ClCCl): 0.196

SMILES: CCCCCCN(CCCCCC)c1ccc(C#Cc2ccc(C#Cc3ccc(-c4ccc(C#Cc5ccc(C#Cc6ccc(N(CCCCCC)CCCCCC)cc6)cc5)cc4)cc3)cc2)cc1
- photoluminescence quantum yield (in Cc1ccccc1): 0.82

SMILES: CC1(C)c2ccccc2N(c2ccc(C(=C(C#N)C#N)c3ccc(N4c5ccccc5C(C)(C)c5ccccc54)cc3)cc2)c2ccccc21
- photoluminescence quantum yield (in Cc1ccccc1): 0.0171

SMILES: Cc1ccc(-c2nc(-c3ccc(-c4nc(-c5ccc(C)cc5)c(-c5ccc(C)cc5)[nH]4)cc3)[nH]c2-c2ccc(C)cc2)cc1
- photoluminescence quantum yield (in CS(C)=O): 0.96

SMILES: COc1ccc(/C=C/C2=[O+][B-](F)(F)OC(/C=C/c3ccc(OC)cc3)=C2c2ccc(OC)cc2)cc1
- photoluminescence quantum yield (in ClCCl): 0.39

SMILES: F[B-]1(F)n2c(nc3c4ccccc4c4ccccc4c32)-c2ccc3ccccc3[n+]21
- photoluminescence quantum yield (in ClCCl): 0.9

SMILES: CCCN1C(=O)c2c3c(c4c(c2C1=O)CCc1cc(-c2ccc(N(C)C)cc2)c(OC)cc1-4)-c1cc(OC)c(-c2ccc(N(C)C)cc2)cc1CC3
- photoluminescence quantum yield (in C1CCCCC1): 0.752
- photoluminescence quantum yield (in C1CCOC1): 0.069
- photoluminescence quantum yield (in CCOC(C)=O): 0.065
- photoluminescence quantum yield (in Cc1ccccc1): 0.726
- photoluminescence quantum yield (in ClCCl): 0.023

SMILES: Fc1ccc(C#Cc2cc(C#Cc3ccc(F)cc3)c(C#Cc3ccc(F)cc3)c(C#Cc3ccc(F)cc3)c2C#Cc2ccc(F)cc2)cc1
- photoluminescence quantum yield (in ClCCl): 0.43

SMILES: CC1=[N+]2C(=C(c3ccccc3)c3ccc(/C=C/c4ccc(C(=C(c5ccccc5)c5ccccc5)c5ccccc5)cc4)n3[B-]2(F)F)C=C1
- photoluminescence quantum yield (in C1CCOC1): 0.746

SMILES: CN(C)c1ccc(-c2cc[n+](C)cc2)s1
- photoluminescence quantum yield (in CCO): 0.003

SMILES: c1ccc2c(c1)Cc1ccccc1N2c1c2ccccc2cc2ccccc12
- photoluminescence quantum yield (in Cc1ccccc1): 0.06

SMILES: COc1c2ccccc2c(OC)c2c1c1c(C)ccc(OC)c1n2C
- photoluminescence quantum yield (in C1CCCCC1): 0.23
- photoluminescence quantum yield (in CC#N): 0.26
- photoluminescence quantum yield (in CO): 0.25
- photoluminescence quantum yield (in ClCCl): 0.31

SMILES: COc1ccc2c(c1)CCC1=C(C#Cc3ccccc3)O[B-](F)(F)[O+]=C12
- photoluminescence quantum yield (in ClCCl): 0.8

SMILES: c1ccc2c(c1)c1ccccc1c1ccccc21
- photoluminescence quantum yield (in ClCCl): 0.02

SMILES: CCn1c2ccccc2c2cc(-c3cc(-c4ccc5c(c4)c4ccccc4n5CC)nc(-c4ccc(C#N)cc4)n3)ccc21
- photoluminescence quantum yield (in C1CCOC1): 0.08
- photoluminescence quantum yield (in CCOC(C)=O): 0.09
- photoluminescence quantum yield (in CN(C)C=O): 0.07
- photoluminescence quantum yield (in Cc1ccccc1): 0.34
- photoluminescence quantum yield (in ClCCl): 0.11

SMILES: COCCN1C(=O)/C(=C/c2cccc(N(C)C)c2)N=C1C
- photoluminescence quantum yield (in C1CCOC1): 0.13
- photoluminescence quantum yield (in CC#N): 0.04
- photoluminescence quantum yield (in CCCCCC): 0.45
